Our source for the IC50 values is US20170298052A1, “SUBSTITUTED OXOPYRIDINE DERIVATIVES” (BAYER PHARMA AKTIENGESELLSCHAFT, priority 2014, published 2017).

The target in one assay is T1, human factor XIa (Homo sapiens, UniProt P03951).
T1 construct: purchased Kordia
The assay can be described thus: Measurement of FXIa inhibition (fluorogenic peptide substrate, AMC cleavage). Type of assay: biochemical. Particulars: factor XIa from Kordia 0.45 nM; substrate Boc-Glu(OBzl)-Ala-Arg-AMC; 30 min at 22° C. On the procedure: The factor XIa inhibition of the substances according to the invention is determined using a biochemical test system which utilizes the reaction of a peptidic factor XIa substrate to determine the enzymatic activity of human factor XIa. Here, factor XIa cleaves from the peptic factor XIa substrate the C-terminal aminomethylcoumarin (AMC), the fluorescence of which is measured. The determinations are carried out in microtitre plates.
1 μl of the diluted substance solutions is placed into each of the wells of white microtitre plates from Greiner (384 wells). […] After 15 min of incubation, the enzyme reaction is started by addition of 20 μl of the factor XIa substrate Boc-Glu(OBzl)-Ala-Arg-AMC dissolved in assay buffer (10 μM in assay buffer) from Bachem, the mixture is incubated at room temperature (22° C.) for 30 min and fluorescence is then measured (excitation: 360 nm, emission: 460 nm). The measured emissions of the test batches with test substance are compared to those of control batches without test substance (only dimethyl sulphoxide instead of test substance in dimethyl sulphoxide), and IC50 values are calculated from the concentration/activity relationships.

The target in another assay is human plasma kallikrein (Homo sapiens, UniProt P03952). As to the kind of experiment: Determination of the plasma kallikrein activity (fluorogenic peptide substrate, AMC cleavage). Type of assay: biochemical. Particulars: plasma kallikrein from Kordia 0.6 nM; substrate H-Pro-Phe-Arg-AMC; 30 min at 22° C.; read-out: IC50 [nM] (Table B, plasma kallikrein inhibition). The method, then:
To determine the plasma kallikrein inhibition of the substances according to the invention, a biochemical test system is used which utilizes the reaction of a peptidic plasma kallikrein substrate to determine the enzymatic activity of human plasma kallikrein. Here, plasma kallikrein cleaves from the peptic plasma kallikrein substrate the C-terminal aminomethylcoumarin (AMC), the fluorescence of which is measured. The determinations are carried out in microtitre plates.
Test substances are dissolved in dimethyl sulphoxide and serially diluted in dimethyl sulphoxide (3000 μM to 0.0078 μM; resulting final concentrations in the test: 50 μM to 0.00013 μM). 1 μl of the diluted substance solutions is placed into each of the wells of white microtitre plates from Greiner (384 wells). 20 μl of assay buffer (50 mM Tris/HCl pH 7.4; 100 mM sodium chloride solution; 5 mM of calcium chloride solution; 0.1% of bovine serum albumin) and 20 μl of plasma kallikrein from Kordia (0.6 nM in assay buffer) are then added successively. After 15 min of incubation, the enzyme reaction is started by addition of 20 μl of the substrate H-Pro-Phe-Arg-AMC dissolved in assay buffer (10 μM in assay buffer) from Bachem, the mixture is incubated at room temperature (22° C.) for 30 min and fluorescence is then measured (excitation: 360 nm, emission: 460 nm). The measured emissions of the test batches with test substance are compared to those of control batches without test substance (only dimethyl sulphoxide instead of test substance in dimethyl sulphoxide), and IC50 values are calculated from the concentration/activity relationships.

human plasma kallikrein, sequence (P03952 391-638 limits assumed): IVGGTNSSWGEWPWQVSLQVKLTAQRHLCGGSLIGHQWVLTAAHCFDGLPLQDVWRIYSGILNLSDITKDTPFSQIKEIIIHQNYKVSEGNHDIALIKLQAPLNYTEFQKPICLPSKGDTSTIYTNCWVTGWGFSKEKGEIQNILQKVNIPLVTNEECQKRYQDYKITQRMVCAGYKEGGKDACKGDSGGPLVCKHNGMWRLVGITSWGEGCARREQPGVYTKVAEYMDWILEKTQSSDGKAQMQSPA
human plasma kallikrein, sequence (P03952 20-390 partner limits assumed): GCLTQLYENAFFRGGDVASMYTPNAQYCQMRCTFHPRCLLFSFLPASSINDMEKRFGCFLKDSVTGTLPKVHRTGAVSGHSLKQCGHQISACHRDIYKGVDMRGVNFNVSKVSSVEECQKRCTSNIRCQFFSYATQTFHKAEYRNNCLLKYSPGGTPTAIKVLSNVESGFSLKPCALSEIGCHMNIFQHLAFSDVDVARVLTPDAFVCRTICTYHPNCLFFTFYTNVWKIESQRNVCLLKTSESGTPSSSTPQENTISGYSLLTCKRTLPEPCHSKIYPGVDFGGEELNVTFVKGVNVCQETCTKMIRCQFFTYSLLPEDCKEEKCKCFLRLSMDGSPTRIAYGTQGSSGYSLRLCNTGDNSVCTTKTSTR
T1 sequence (P03951 388-625 limits assumed): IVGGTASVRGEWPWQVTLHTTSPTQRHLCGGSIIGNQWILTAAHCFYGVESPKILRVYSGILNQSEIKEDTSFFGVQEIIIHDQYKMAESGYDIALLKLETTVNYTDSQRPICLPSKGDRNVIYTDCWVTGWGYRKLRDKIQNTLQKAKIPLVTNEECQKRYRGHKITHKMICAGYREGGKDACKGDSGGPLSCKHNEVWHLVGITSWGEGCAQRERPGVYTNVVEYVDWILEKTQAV
T1 sequence (P03951 19-387 partner limits assumed): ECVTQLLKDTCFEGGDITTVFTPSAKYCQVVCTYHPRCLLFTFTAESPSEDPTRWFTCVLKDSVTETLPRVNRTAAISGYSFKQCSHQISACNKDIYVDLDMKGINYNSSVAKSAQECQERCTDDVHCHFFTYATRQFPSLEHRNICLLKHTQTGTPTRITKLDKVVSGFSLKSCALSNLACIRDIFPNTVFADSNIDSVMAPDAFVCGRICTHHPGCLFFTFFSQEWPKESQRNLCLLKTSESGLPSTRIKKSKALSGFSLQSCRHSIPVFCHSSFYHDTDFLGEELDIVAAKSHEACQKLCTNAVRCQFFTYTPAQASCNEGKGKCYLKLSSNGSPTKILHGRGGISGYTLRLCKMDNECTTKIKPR

For the molecule `COCCC(C(=O)Nc1ccc(C(N)=O)c(F)c1)n1cc(OC)c(-c2cc(OC)ccc2C#N)cc1=O` (racemic) [Example 23, 4-({2-[4-(2-Cyano-5-methoxyphenyl)-5-methoxy-2-oxopyridin-1(2H)-yl]-4-methoxybutanoyl}amino)-2-fluorobenzamide], the IC50 against human factor XIa came to 170 nM; at human plasma kallikrein it was 310 nM. For `CNC(=O)c1ccc(NC(=O)C(C[C@@H]2CCCCO2)n2cc(Cl)c(-c3cc(Cl)ccc3C#N)cc2=O)cc1F` (stereo partly drawn) [Example 15], the figures for the IC50 against human factor XIa and at human plasma kallikrein were 28 nM and 260 nM, respectively. As to `COc1cc(NC(=O)C(Cc2ccn(C)n2)n2cc(OC)c(-c3cc(Cl)ccc3C#N)cc2=O)ccc1C(N)=O` (racemic) [Example 46, 4-({2-[4-(5-Chloro-2-cyanophenyl)-5-methoxy-2-oxopyridin-1(2H)-yl]-3-(1-methyl-1H-pyrazol-3-yl)propanoyl}amino)-2-methoxybenzamide], the IC50 is 8.9 nM at human factor XIa and 2.4 nM on human plasma kallikrein. In the same order, the values of `COc1cn(C(Cc2ccccn2)C(=O)Nc2ccc(C(N)=O)c(F)c2)c(=O)cc1-c1cc(Cl)ccc1C#N` (stereo not drawn) [Example 12] are 11 nM and 10 nM. As for `COc1cn(C(Cc2cccnc2)C(=O)Nc2ccc(C(N)=O)c(F)c2)c(=O)cc1-c1cc(Cl)ccc1C#N` (stereo not drawn) [Example 9], the IC50 on human factor XIa amounted to 11 nM; at human plasma kallikrein it was 6 nM. In the same order, the values of `CCOCCC(C(=O)Nc1ccc(C(N)=O)c(F)c1)n1cc(OC)c(-c2cc(Cl)ccc2C#N)cc1=O` (racemic) [Example 18, 4-({2-[4-(5-Chloro-2-cyanophenyl)-5-methoxy-2-oxopyridin-1(2H)-yl]-4-ethoxybutanoyl}amino)-2-fluorobenzamide] are 14 nM and 11 nM. In the same order, the values of `COc1cn(C(Cc2cnco2)C(=O)Nc2ccc(C(N)=O)c(F)c2)c(=O)cc1-c1cc(Cl)ccc1C#N` (single isomer, unassigned) [Example 45, 4-({2-[4-(5-Chloro-2-cyanophenyl)-5-methoxy-2-oxopyridin-1(2H)-yl]-3-(1,3-oxazol-5-yl)propanoyl}amino)-2-fluorobenzamide] are 6.4 nM and 4 nM. In the same order, the values of `COc1cn(C(Cc2ccncc2)C(=O)Nc2ccc(C(N)=O)c(F)c2)c(=O)cc1-c1cc(Cl)ccc1C#N` (single isomer, unassigned) [Example 29, 4-({2-[4-(5-Chloro-2-cyanophenyl)-5-methoxy-2-oxopyridin-1(2H)-yl]-3-(pyridin-4-yl)propanoyl}amino)-2-fluorobenzamide] are 5.1 nM and 2.7 nM. For the molecule `COc1cn(C(Cc2cnco2)C(=O)Nc2cc(F)c(C(N)=O)c(F)c2)c(=O)cc1-c1cc(Cl)ccc1C#N` (racemic) [Example 40, 4-({2-[4-(5-Chloro-2-cyanophenyl)-5-methoxy-2-oxopyridin-1(2H)-yl]-3-(1,3-oxazol-5-yl)propanoyl}amino)-2,6-difluorobenzamide], the IC50 against human factor XIa is 34 nM; at human plasma kallikrein, 27 nM.

On to `COCCC(C(=O)Nc1ccc(C(N)=O)c(F)c1)n1cc(OC)c(-c2cc(Cl)c(F)cc2C#N)cc1=O` (racemic) [Example 25, 4-({2-[4-(5-Chloro-2-cyano-4-fluorophenyl)-5-methoxy-2-oxopyridin-1(2H)-yl]-4-methoxy-butanoyl}amino)-2-fluorobenzamide], for which the values for the IC50 on human factor XIa and at human plasma kallikrein were 310 nM and 160 nM, respectively. The corresponding values for `COc1cn(C(Cc2coc(C)n2)C(=O)Nc2ccc(C(N)=O)c(F)c2)c(=O)cc1-c1cc(Cl)ccc1C#N` (racemic) [Example 41, 4-({2-[4-(5-Chloro-2-cyanophenyl)-5-methoxy-2-oxopyridin-1(2H)-yl]-3-(2-methyl-1,3-oxazol-4-yl)-propanoyl}amino)-2-fluorobenzamide] are 28 nM and 21 nM. Turning to `COc1cn(C(Cc2cocn2)C(=O)Nc2ccc(C(N)=O)c(F)c2)c(=O)cc1-c1cc(Cl)ccc1C#N` (stereo not drawn) [Example 3], the IC50 against human factor XIa was 43 nM; on human plasma kallikrein, 33 nM. Regarding `COc1cn(C(Cc2ccccn2)C(=O)Nc2ccc(C(N)=O)c(F)c2)c(=O)cc1-c1cc(Cl)ccc1F` (stereo not drawn) [Example 17], the concentration for half-maximal inhibition (IC50) against human factor XIa is 290 nM; at human plasma kallikrein, 230 nM.

Turning to `N#Cc1ccc(Cl)cc1-c1cc(=O)n(C(Cc2cnco2)C(=O)Nc2ccc(C(N)=O)c(F)c2)cc1Cl` (stereo not drawn) [Example 4], the IC50 worked out at 52 nM against human factor XIa and 140 nM on human plasma kallikrein.

Take `N#Cc1ccc(Cl)cc1-c1cc(=O)n(C(Cc2cocn2)C(=O)Nc2ccc(C(N)=O)c(F)c2)cc1Cl` (stereo not drawn) [Example 2]: the values for the IC50 at human factor XIa and at human plasma kallikrein were 190 nM and 260 nM, respectively.

On to `N#Cc1ccc(Cl)cc1-c1cc(=O)n(C(Cc2ccccn2)C(=O)Nc2ccc(C(N)=O)c(F)c2)cc1Cl` (stereo not drawn) [Example 13], for which the IC50 was 63 nM on human factor XIa and 110 nM on human plasma kallikrein.

As to `COc1cn(C(Cc2cc(C)no2)C(=O)Nc2ccc(C(N)=O)c(F)c2)c(=O)cc1-c1cc(Cl)ccc1F` (stereo not drawn) [Example 16], the results for the IC50 against human factor XIa and on human plasma kallikrein were 200 nM and 350 nM, respectively.

As for `COc1cn(C(Cc2cc(C)no2)C(=O)Nc2ccc(C(N)=O)c(F)c2)c(=O)cc1-c1cc(Cl)ccc1C#N` (racemic) [Example 32, 4-({2-[4-(5-Chloro-2-cyanophenyl)-5-methoxy-2-oxopyridin-1(2H)-yl]-3-(3-methyl-1,2-oxazol-5-yl)propanoyl}amino)-2-fluorobenzamide], the IC50 against human factor XIa worked out at 13 nM; at human plasma kallikrein, 11 nM. The corresponding values for `COc1cn(C(Cc2ncco2)C(=O)Nc2ccc(C(N)=O)c(F)c2)c(=O)cc1-c1cc(Cl)ccc1C#N` (racemic) [Example 36, 4-({2-[4-(5-Chloro-2-cyanophenyl)-5-methoxy-2-oxopyridin-1(2H)-yl]-3-(1,3-oxazol-2-yl)propanoyl}amino)-2-fluorobenzamide] are 13 nM and 11 nM. The corresponding values for `COc1cn(C(Cc2ccncc2)C(=O)Nc2ccc(C(N)=O)c(F)c2)c(=O)cc1-c1cc(Cl)ccc1C#N` (stereo not drawn) [Example 10] are 9 nM and 7 nM. For `COc1cn(C(CCOC2CCC2)C(=O)Nc2ccc(C(N)=O)c(F)c2)c(=O)cc1-c1cc(Cl)ccc1C#N` (racemic) [Example 20, 4-({2-[4-(5-Chloro-2-cyanophenyl)-5-methoxy-2-oxopyridin-1(2H)-yl]-4-(cyclobutyloxy)-butanoyl}amino)-2-fluorobenzamide], the figures for the IC50 against human factor XIa and on human plasma kallikrein were 7.4 nM and 6.1 nM, respectively.

With `CCC(C(=O)Nc1ccc(C(N)=O)c(F)c1)n1cc(OC)c(-c2cc(Cl)ccc2C#N)cc1=O` (stereo not drawn) [Example 7], the IC50 came out at 25 nM against human factor XIa and 36 nM on human plasma kallikrein.

Regarding `CNC(=O)c1ccc(NC(=O)C(Cc2ccccn2)n2cc(OC)c(-c3cc(Cl)ccc3C#N)cc2=O)cc1F` (racemic) [Example 30, 4-({2-[4-(5-Chloro-2-cyanophenyl)-5-methoxy-2-oxopyridin-1(2H)-yl]-3-(pyridin-2-yl)propanoyl}amino)-2-fluoro-N-methylbenzamide], the 50% inhibitory concentration (IC50) at human factor XIa turned out to be 9.7 nM; at human plasma kallikrein, 8.2 nM. For the molecule `COc1cn(C(CC2=NOCC2)C(=O)Nc2ccc(C(N)=O)c(F)c2)c(=O)cc1-c1cc(Cl)ccc1C#N` (racemic) [Example 42, 4-({2-[4-(5-Chloro-2-cyanophenyl)-5-methoxy-2-oxopyridin-1(2H)-yl]-3-(4,5-dihydro-1,2-oxazol-3-yl)propanoyl}amino)-2-fluorobenzamide], the IC50 on human factor XIa came out at 51 nM; on human plasma kallikrein it was 38 nM.

On to `N#Cc1ccc(Cl)cc1-c1cc(=O)n(C(Cc2ccccn2)C(=O)Nc2ccc(C(N)=O)c(F)c2)cc1OC(F)F` (stereo not drawn) [Example 11], for which the half-inhibitory concentration (IC50) against human factor XIa was 160 nM; at human plasma kallikrein it was 490 nM.

Turning to `COCCC(C(=O)Nc1ccc(C(N)=O)c(F)c1)n1cc(OC)c(-c2cc(Cl)ccc2C#N)cc1=O` (racemic) [Example 31, 4-({2-[4-(5-Chloro-2-cyanophenyl)-5-methoxy-2-oxopyridin-1(2H)-yl]-4-methoxybutanoyl}amino)-2-fluorobenzamide], the IC50 at human plasma kallikrein came out at 9.7 nM.
